Source: PMC10502144, “Anti-methicillin-resistant Staphylococcus aureus activity and safety evaluation of 14-O-[(5-ethoxycarbonyl-4,6-dimethylpyrimidine-2-yl) thioacetyl] mutilin (EDT)” (Scientific Reports, 2023)
Values after ≈ are worked out from the molar mass of the structure shown. Like-named read-outs stand apart in the source and are kept apart here.

Legend:
[1] = Cytotoxicity assay (CCK-8), HEK293T; assay type: cell-based; conditions: human, HEK293T cells
Procedure: Cytotoxicity of EDT and tiamulin was studied against human hepatocellular carcinoma cells (HepG2) and human embryonic kidney 293T (HEK293T) cells following a protocol as published in our earlier reports[41],[42]. Cells were counted and inoculated into 96-well plates with approximately10^5 cells density for incubating 24 h at 37 °C. […] The same procedure was repeated three times. The percentages of cell viability were calculated by the formula: Cell viability (%) = [Asample ‒ Anegative]/[Apositve ‒ Anegative] × 100%.

[2] = Microsomal stability assay, mouse; assay type: in vitro ADME; conditions: mouse liver microsomes
Procedure: Mouse and human liver microsomes were thawed slowly on ice. A total of 5 mg/mL of microsomes, 2 μL of a 100 μM solution of EDT and 183 μL of 100 mM phosphate buffer were incubated 5 min at 37 °C in a water bath. Reactions were initiated using 10 μL of 20 mM NADPH. Samples were incubated in three replicates at 37 °C under gentle agitation at 150 rpm. At 0, 5, 15, 30, and 60 min, reactions were terminated by the addition of 180 μL of acetonitrile. After centrifugation (4000 rpm, 10 min), samples were then analyzed by liquid chromatography/tandem mass spectrometry (LC–MS/MS). Peak areas of the respective time point of the compound were normalized to the peak area at time point 0 min. Then half-life was calculated using linear regression from log percentage (t1/2 = − 0.693/k).

[3] = system: Salmonella Typhimurium TA100; assay: Ames test, TA100; assay type: cell-based
Procedure: (§1) Before the test, Salmonella Typhimurium (S. Typhimurium) TA97a, TA98, TA100, TA102, TA1535 and Escherichia coli WP2uvrA pKM101 (pKM101) were first checked for their genetic integrity, including biotin dependence, rfa marker (crystal violet), biotin, histidine dependence and presence of the plasmid pKM101 (ampicillin resistance) or pAQ1 (tetracycline resistance). […] The maximum concentration of EDT was also screened using a preliminary experiment.
(§2) DMSO (0.1 mL) was directly incorporated into 1.9 mL melted top agar as the vehicle control. […] Each strain (0.1 mL, 6–7 log10 CFU/mL) was added into 2 mL of top agar in which comprised 0.5 mL S9 (10%), serial concentrations of EDT (2000, 400, 80, 16 and 3.2 μg/plate), DMSO or control chemicals for testing with the S9. For testing without S9, 0.5 mL phosphate buffer saline (PBS, pH 7.4) replaced the S9 mix. Then, the obtained top agar was melted, poured onto the surface of […] and swirled to distribute the top agar to all surfaces of medium, followed by incubation at 37 °C for 48 h. The resultant colonies were counted manually as the number of revertant colonies per plate. The experiments were performed in triplicate and the results were expressed as the average ± SD.

[4] = system: clinical isolates of MRSA; assay: MIC by broth serial-dilution against 48 clinical isolates of MRSA; assay type: cell-based, methicillin-resistant Staphylococcus aureus
Procedure: The tests against 48 clinical isolates of MRSA from dairy farms in 4 different provinces in China[37] were conducted in triplicate, using broth serial-dilution method in 96-well plates according to CLSI reference methods. Briefly, EDT and tiamulin fumarate used as referent drug were dissolved in 25% dimethyl sulfoxide (DMSO) to a solution with concentration of 64 μg/mL. The obtained 100 μL solutions were then added into the first column of the 96-well plate, and diluted to the tenth well with serial twofold dilutions. The last two wells were used as positive controls. The 100 μL bacterial suspension was diluted in MHB to give a final organism density of to 10^5 ~ 10^6 colony-forming unit (CFU) per 1 mL and added to all the wells, followed by incubating at 37 °C for 24 h. […] The results were expressed as an average of the MICs obtained from three independent experiments.

[5] = system: S. Typhimurium TA97a, TA98, TA100, TA102, TA1535 and Escherichia coli WP2uvrA pKM101; assay: Ames test, all tested strains (overall result and preliminary dose finding); assay type: cell-based, Salmonella Typhimurium; Escherichia coli
Procedure: as §1, §2

C=CC1(C)CC(OC(=O)CSc2nc(C)c(C(=O)OCC)c(C)n2)C2(C)C(C)CCC3(CCC(=O)C32)C(C)C1O (centres unmarked) [EDT, 14-O-[(5-ethoxycarbonyl-4,6-dimethylpyrimidine-2-yl)thioacetyl] mutilin]
CC50 at 6 h ([1]; 200 μM converted to μg/mL): > 115 µg/mL
CC50 at 6 h ([1]; deduced from Fig. 5): > 200 µM
half-life at 1 μM [2]: 30.1 min
microsomal CLint at 1 μM [2]: 46 µL/min/mg
number of revertant colonies per plate ([3]; TA100, 3.2 μg/plate, +S9): 119.67 ± 7.33
number of revertant colonies per plate ([3]; TA100, 3.2 μg/plate, −S9): 109.00 ± 8.00
number of revertant colonies per plate ([3]; TA100, 16 μg/plate, +S9): 103.67 ± 9.33
number of revertant colonies per plate ([3]; TA100, 16 μg/plate, −S9): 101.00 ± 9.00
number of revertant colonies per plate ([3]; TA100, 80 μg/plate, +S9): 118.67 ± 14.33
number of revertant colonies per plate ([3]; TA100, 80 μg/plate, −S9): 105.33 ± 13.67
number of revertant colonies per plate ([3]; TA100, 400 μg/plate, +S9): 134.33 ± 12.67
number of revertant colonies per plate ([3]; TA100, 400 μg/plate, −S9): 129.67 ± 15.33
number of revertant colonies per plate ([3]; TA100, 2000 μg/plate, +S9): 137.00 ± 14.00
number of revertant colonies per plate ([3]; TA100, 2000 μg/plate, −S9): 122.67 ± 11.33
MIC ([4]; Staphylococcus aureus, MRSA, read-out: MIC values against 48 strains, range over 48 clinical isolates of MRSA): 0.0313 to 0.0625 µg/mL (≈ 0.0546 to 0.109 µM)
inhibition at 0.0625 µg/mL ([4]; Staphylococcus aureus, MRSA, read-out: strains inhibited): 97.9%
MIC ([4]; Staphylococcus aureus, MRSA, strain CX1): 0.0313 µg/mL (≈ 0.0546 µM)
MIC ([4]; Staphylococcus aureus, MRSA, strain CX2): 0.0313 µg/mL (≈ 0.0546 µM)
MIC ([4]; Staphylococcus aureus, MRSA, strain CX5): 0.0313 µg/mL (≈ 0.0546 µM)
MIC ([4]; Staphylococcus aureus, MRSA, strain CX6): 0.0313 µg/mL (≈ 0.0546 µM)
MIC ([4]; Staphylococcus aureus, MRSA, strain CX7): 0.0625 µg/mL (≈ 0.109 µM)
MIC ([4]; Staphylococcus aureus, MRSA, strain CX9): 0.125 µg/mL (≈ 0.218 µM)
MIC ([4]; Staphylococcus aureus, MRSA, strain HG1): 0.0313 µg/mL (≈ 0.0546 µM)
MIC ([4]; Staphylococcus aureus, MRSA, strain HG2): 0.0313 µg/mL (≈ 0.0546 µM)
MIC ([4]; Staphylococcus aureus, MRSA, strain HG3): 0.0313 µg/mL (≈ 0.0546 µM)
MIC ([4]; Staphylococcus aureus, MRSA, strain HG4): 0.0313 µg/mL (≈ 0.0546 µM)
MIC ([4]; Staphylococcus aureus, MRSA, strain HG5): 0.0313 µg/mL (≈ 0.0546 µM)
MIC ([4]; Staphylococcus aureus, MRSA, strain HG6): 0.0313 µg/mL (≈ 0.0546 µM)
MIC ([4]; Staphylococcus aureus, MRSA, strain HG7): 0.0625 µg/mL (≈ 0.109 µM)
MIC ([4]; Staphylococcus aureus, MRSA, strain QY4): 0.0313 µg/mL (≈ 0.0546 µM)
MIC ([4]; Staphylococcus aureus, MRSA, strain QY5): 0.0313 µg/mL (≈ 0.0546 µM)
MIC ([4]; Staphylococcus aureus, MRSA, strain QY6): 0.0625 µg/mL (≈ 0.109 µM)
MIC ([4]; Staphylococcus aureus, MRSA, strain QY8): 0.0313 µg/mL (≈ 0.0546 µM)
MIC ([4]; Staphylococcus aureus, MRSA, strain QY10): 0.0625 µg/mL (≈ 0.109 µM)
MIC ([4]; Staphylococcus aureus, MRSA, strain SH3): 0.0313 µg/mL (≈ 0.0546 µM)
MIC ([4]; Staphylococcus aureus, MRSA, strain SH4): 0.0313 µg/mL (≈ 0.0546 µM)
MIC ([4]; Staphylococcus aureus, MRSA, strain SH6): 0.0313 µg/mL (≈ 0.0546 µM)
MIC ([4]; Staphylococcus aureus, MRSA, strain SH7): 0.0625 µg/mL (≈ 0.109 µM)
MIC ([4]; Staphylococcus aureus, MRSA, strain SH8): 0.0313 µg/mL (≈ 0.0546 µM)
MIC ([4]; Staphylococcus aureus, MRSA, strain SH9): 0.0313 µg/mL (≈ 0.0546 µM)
MIC ([4]; Staphylococcus aureus, MRSA, strain SH10): 0.0313 µg/mL (≈ 0.0546 µM)
MIC ([4]; Staphylococcus aureus, MRSA, strain SH11): 0.0313 µg/mL (≈ 0.0546 µM)
MIC ([4]; Staphylococcus aureus, MRSA, strain SH12): 0.0313 µg/mL (≈ 0.0546 µM)
MIC ([4]; Staphylococcus aureus, MRSA, strain SH13): 0.0313 µg/mL (≈ 0.0546 µM)
MIC ([4]; Staphylococcus aureus, MRSA, strain SH14): 0.0313 µg/mL (≈ 0.0546 µM)
MIC ([4]; Staphylococcus aureus, MRSA, strain SH15): 0.0313 µg/mL (≈ 0.0546 µM)
MIC ([4]; Staphylococcus aureus, MRSA, strain SX5): 0.0313 µg/mL (≈ 0.0546 µM)
MIC ([4]; Staphylococcus aureus, MRSA, strain SX6): 0.0313 µg/mL (≈ 0.0546 µM)
MIC ([4]; Staphylococcus aureus, MRSA, strain SX7): 0.0313 µg/mL (≈ 0.0546 µM)
MIC ([4]; Staphylococcus aureus, MRSA, strain SX8): 0.0313 µg/mL (≈ 0.0546 µM)
MIC ([4]; Staphylococcus aureus, MRSA, strain SX9): 0.0313 µg/mL (≈ 0.0546 µM)
MIC ([4]; Staphylococcus aureus, MRSA, strain SX10): 0.0313 µg/mL (≈ 0.0546 µM)
MIC ([4]; Staphylococcus aureus, MRSA, strain SX16): 0.0625 µg/mL (≈ 0.109 µM)
MIC ([4]; Staphylococcus aureus, MRSA, strain SX17): 0.0313 µg/mL (≈ 0.0546 µM)
MIC ([4]; Staphylococcus aureus, MRSA, strain SX18): 0.0313 µg/mL (≈ 0.0546 µM)
MIC ([4]; Staphylococcus aureus, MRSA, strain ZY1): 0.0313 µg/mL (≈ 0.0546 µM)
MIC ([4]; Staphylococcus aureus, MRSA, strain ZY2): 0.0313 µg/mL (≈ 0.0546 µM)
MIC ([4]; Staphylococcus aureus, MRSA, strain ZY3): 0.0313 µg/mL (≈ 0.0546 µM)
MIC ([4]; Staphylococcus aureus, MRSA, strain ZY4): 0.0313 µg/mL (≈ 0.0546 µM)
MIC ([4]; Staphylococcus aureus, MRSA, strain ZY5): 0.0313 µg/mL (≈ 0.0546 µM)
MIC ([4]; Staphylococcus aureus, MRSA, strain ZY6): 0.0313 µg/mL (≈ 0.0546 µM)
MIC ([4]; Staphylococcus aureus, MRSA, strain ZY7): 0.0313 µg/mL (≈ 0.0546 µM)
MIC ([4]; Staphylococcus aureus, MRSA, strain ZY8): 0.0625 µg/mL (≈ 0.109 µM)
MIC ([4]; Staphylococcus aureus, MRSA, strain ZY9): 0.0313 µg/mL (≈ 0.0546 µM)
MIC values against 48 strains ([4]; range over 48 clinical isolates of MRSA): 0.0313 to 0.125 µg/mL
toxicity to the test strains, preliminary experiment ([5]; 2000 μg/plate): not toxic
toxicity to the test strains, preliminary experiment ([5]; 5000 μg/plate): inhibited the test strains
number of revertant colonies compared with the vehicle control ([5]; 3.2-2000 μg/plate, −S9 and +S9, all strains): no significantly different
